Reference: patent publication US6525059B1, “Substituted pyrazoles as p38 kinase inhibitors” (G. D. Searle & Company, priority 1998, dated 2003)
Where “and” joins values, the source holds several entries; their conditions need not be identical. Identical values can stand only once. Counter-ions that a name gives are not always drawn. Like-named read-outs stand apart in the source and are kept apart here.

How the values were obtained:
[1] = molecular target: T1, human GST-p38 kinase alpha (Homo sapiens, UniProt Q16539); test: p38 kinase in vitro assay, second format, phosphorylation of EGFRP with 33P-ATP; assay type: biochemical; conditions: read-out: p38α Kinase Assay IC50
T1 construct: The coding region of the human p38a cDNA was obtained by PCR-amplification from RNA isolated from the human monocyte cell line THP.1; made in house; host or cells: E. coli DH10B
Experimental: A second assay format was also employed that is based on p38 kinase alpha induced phosphorylation of EGFRP (epidermal growth factor receptor peptide, a 21 mer) in the presence of ^33P-ATP. Compounds were tested in 10 fold serial dilutions over the range of 100 μM to 0.001 μM in 10% DMSO. Each concentration of inhibitor was tested in triplicate. Compounds were evaluated in 50 μl reaction volumes in the presence of 25 mM Hepes pH 7.5, 10 mM magnesium acetate, 4% glycerol, 0.4% bovine serum albumin, 0.4 mM DTT, 50 μM unlabeled ATP, 25 μg EGFRP (200 μM), and 0.05 uCi gamma ^33P-ATP. Reactions were initiated by addition of 0.09 μg of activated, purified human GST-p38 kinase alpha. Activation was carried out using GST-MKK6 (5:1, p38: MKK6) for one hour at 30° C. in the presence of 50 μM ATP. Following incubation for 60 minutes at room temperature, the reaction was stopped by addition of 150 μl of AG 1×8 resin in 900 mM sodium formate buffer, pH 3.0 (1 volume resin to 2 volumes buffer). The mixture was mixed three times with pipetting and the resin was allowed to settle. A total of 50 μl of clarified solution head volume was transferred from the reaction wells to Microlite-2 plates. 150 μl of Microscint 40 was then added to each well of the Microlite plate, and the plate was sealed, mixed, and counted.

TNF-α = test: Rat assay: LPS-challenged rats, serum TNF-α by ELISA; assay type: in vivo; conditions: for inhibition in vivo at 20 mg/kg / inhibition in vivo at 1 mg/kg / inhibition in vivo at 5 mg/kg / inhibition in vivo at 10 mg/kg / inhibition in vivo at 3 mg/kg: Rattus norvegicus, po; for inhibition in vivo at 20 mg/kg: Table 8, dose 20.0 mg/kg; for inhibition in vivo at 10 mg/kg: Table 8, dose 10.0 mg/kg; for inhibition in vivo at 3 mg/kg: Table 8, dose 3.0 mg/kg; for ratLPS/% Inh @20.0 (mg/kg): 20.0 mg/kg oral gavage
human TNF = test: TNF inhibition: human whole blood assay; assay type: cell-based; conditions: Homo sapiens
Experimental: Human peripheral blood is obtained in heparinized tubes. A 190 μL aliquot of blood is placed in each well of a 96 well u-bottom plate. […] After one hour of incubation at 37° C., […] of lipopolysaccharide (Salmonella typhosa, Sigma) in phosphate buffered saline is added resulting in a final concentration of […]. After four to five hours of incubation at 37° C., the supernatants are harvested and assayed at 1:10 or 1:20 dilutions for human TNF using ELISA.

human p38 kinase alpha = molecular target: T2, human p38 kinase alpha (Homo sapiens, UniProt Q16539); test: p38 kinase in vitro assay, phosphorylation of biotinylated PHAS-I with gamma 32P-ATP; assay type: biochemical
T2 construct: The coding region of the human p38a cDNA was obtained by PCR-amplification from RNA isolated from the human monocyte cell line THP.1; GST (N); made in house; host or cells: E. coli DH10B
In short: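 MKK6-activated human p38α phosphorylates biotinylated PHAS-I with γ-32P-ATP in 25 mM HEPES pH 7.5, 10 mM Mg acetate, 50 μM unlabeled ATP, 1% DMSO, 30 °C for 1 h or overnight. Compounds at 100–0.001 μM (10-fold steps, triplicate); substrate captured on streptavidin filter plates and counted by scintillation.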

[2] = Table 8, human whole blood, LPS, read-out: TNF Inhibition-Human Whole Blood Assay
[3] = Table 8, dose 1.0 mg/kg, read-out: Rat LPS Assay % Inhibition
[4] = Table 8, dose 5.0 mg/kg, read-out: Rat LPS Assay % Inhibition
[5] = read-out: Rat LPS Assay % Inhibition
[6] = Table 10, human whole blood, LPS, read-out: TNF Inhibition-Human Whole Blood Assay
[7] = 1.0 mg/kg oral gavage, 4 hours before LPS challenge, read-out: ratLPS/% Inh @1.0 (mg/kg)
[8] = 5.0 mg/kg oral gavage, 4 hours before LPS challenge, read-out: ratLPS/% Inh @5.0 (mg/kg)
[9] = TNF production, LPS-stimulated human whole blood, read-out: HWB IC50

T1 sequence (Q16539 whole entry): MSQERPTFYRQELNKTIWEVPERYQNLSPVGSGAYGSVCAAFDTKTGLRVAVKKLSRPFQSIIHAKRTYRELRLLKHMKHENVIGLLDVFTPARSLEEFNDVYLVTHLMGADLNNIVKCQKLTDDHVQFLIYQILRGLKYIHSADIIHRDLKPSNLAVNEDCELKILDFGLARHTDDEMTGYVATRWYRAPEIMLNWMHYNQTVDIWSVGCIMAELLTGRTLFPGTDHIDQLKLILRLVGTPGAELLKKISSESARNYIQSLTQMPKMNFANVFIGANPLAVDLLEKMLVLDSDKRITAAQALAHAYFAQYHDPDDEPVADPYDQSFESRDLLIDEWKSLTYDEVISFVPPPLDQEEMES
T2 sequence (Q16539 whole entry): as above

SMILES	IC50 ([1]; Table 8, 10% DMSO)	IC50 (human TNF; [2])	IC50 (human p38 kinase alpha; read-out: p38 alpha IC50)	inhibition in vivo at 1 mg/kg (TNF-α; [7])	inhibition in vivo at 5 mg/kg (TNF-α; [8])	IC50 (human TNF; [9])	further results
CN1CCN(Cc2n[nH]c(-c3ccc(F)cc3)c2-c2ccncc2)CC1 [A-313, Step 3, 1-[[5-(4-fluorophenyl)-4-(4-pyridinyl)-1H-pyrazol-3-yl]methyl]-4-methylpiperazine]	0.37 µM	0.12 µM	–	–	–	–	inhibition in vivo at 20 mg/kg (TNF-α): 96%
Fc1ccc(-c2[nH]nc(CN3CCNCC3)c2-c2ccncc2)cc1 [A-314, Step 2, 1-[[5-(4-fluorophenyl)-4-(4-pyridinyl)-1H-pyrazol-3-yl]methyl]-4-piperazine]	0.032 µM	0.47 µM	–	–	–	–	inhibition in vivo at 1 mg/kg (TNF-α; [3]): 0%; inhibition in vivo at 5 mg/kg (TNF-α; [4]): 53%; inhibition in vivo at 20 mg/kg (TNF-α): 85%
Fc1ccc(-c2n[nH]c(CC3CCNCC3)c2-c2ccncc2)cc1 [Example A-315, 4-[3-(4-fluorophenyl)-5-(4-piperidinylmethyl)-1H-pyrazol-4-yl]pyridine]	0.049 µM	1.75 µM	–	–	–	–	–
CN1CCN(c2n[nH]c(-c3ccc(F)cc3)c2-c2ccncc2)CC1 [Example A-317, 1-[5-(4-fluorophenyl)-4-(4-pyridinyl)-1H-pyrazol-3-yl]-4-methylpiperazine, dihydrate]	0.07 µM	0.45 µM	–	–	–	–	inhibition in vivo at 10 mg/kg (TNF-α): 69%
C#CCn1nc(N2CCNCC2)c(-c2ccncc2)c1-c1ccc(Cl)cc1 [Example A-318, 1-[5-(4-chlorophenyl)-4-(4-pyridinyl)-1-(2-propynyl)-1H-pyrazol-3-yl]piperazine, trihydrochloride monohydrate]	0.58 µM and 0.37 µM and 0.6 µM	0.167 µM	–	–	–	–	inhibition in vivo at 3 mg/kg (TNF-α; [5]): 54%
Clc1ccc(-c2[nH]nc(NC3CCNCC3)c2-c2ccncc2)cc1 [Example A-332, N-[5-(4-chlorophenyl)-4-(4-pyridinyl)-3H-pyrazol-3-yl]-4-piperidineamine, trihydrochloride, monohydrate]	0.015 µM and < 0.1 µM	0.45 µM	–	–	–	–	inhibition in vivo at 1 mg/kg (TNF-α; [3]): 33%; inhibition in vivo at 3 mg/kg (TNF-α; [5]): 26%; inhibition in vivo at 5 mg/kg (TNF-α; [4]): 25%; inhibition in vivo at 10 mg/kg (TNF-α): -85%
Clc1ccc(-c2[nH]nc(N3CCN(c4ccccc4)CC3)c2-c2ccncc2)cc1 [Example A-335, 1-[5-(4-chlorophenyl)-4-(4-pyridinyl)-1H-pyrazol-3-yl]-4-phenylpiperazine]	89.9 µM	> 25 µM	–	–	–	–	–
CCOC(=O)N1CCC(Nc2n[nH]c(-c3ccc(F)cc3)c2-c2ccncc2)CC1 [Example A-337, Ethyl 4-[[5-(4-fluorophenyl)-4-(4-pyridinyl)-1H-pyrazol-3-yl]amino]-1-piperidinecarboxylate, monohydrate]	1.35 µM	> 25 µM	–	–	–	–	–
CN1CCC(Nc2n[nH]c(-c3ccc(F)cc3)c2-c2ccncc2)CC1 [Example A-338, N-[5-(4-fluorophenyl)-4-(pyridinyl)-1H-pyrazol-3-yl]-1-methyl-4-piperidinamine]	0.018 µM	0.059 µM	–	–	–	–	–
Fc1ccc(-c2[nH]nc(NC3CCNCC3)c2-c2ccncc2)cc1 [Example A-339, N-[5-(4-fluorophenyl)-4-(4-pyridinyl)-1H-pyrazol-3-yl]-4-piperidinamine, trihydrochloride]	0.052 µM	0.056 µM	–	–	–	–	–
CS(=O)(=O)c1[nH]nc(-c2ccc(F)cc2)c1-c1ccncc1 [Example A-437, 3-(4-fluorophenyl)-5-(methylsulfonyl)-4-pyridin-4-yl-1H-pyrazole]	–	–	–	–	–	–	IC50 ([1]; Table 10, 10% DMSO, @ 1.0 hour): 7.76 µM; IC50 (human TNF; [6]): > 25 µM
Clc1ccc(-c2n[nH]c(SCCN3CCCC3)c2-c2ccncc2)cc1 [Example A-460]	–	–	–	–	–	–	IC50 ([1]; Table 10, 10% DMSO, @ 1.0 hour): 1.84 µM; IC50 (human TNF; [6]): 8.91 µM
COCC(=O)N1CCCC(c2[nH]nc(-c3ccc(F)cc3)c2-c2ccncc2)C1 (centres unmarked) [Example C-139]	–	–	–	–	–	–	IC50 (human p38 kinase alpha; read-out: P38 alpha kinase IC50): 0.2 µM; inhibition in vivo at 5 mg/kg (TNF-α; 5 mpk oral gavage, 4 h before LPS challenge, read-out: Rat LPS Model % Inhibition @ dose @ predose time): 46%; IC50 (human TNF; TNF production, LPS-stimulated human whole blood, read-out: Human Whole Blood IC50): 3.66 µM
COCC(=O)N1CCC(c2[nH]nc(-c3ccc(Cl)cc3)c2-c2ccncn2)CC1 [Example D-3, N-(2-Methoxyacetyl)-5-(4-piperidyl)-4-(4-pyrimidyl)-3-(4-chlorophenyl)pyrazole (fumarate salt)]	–	–	0.095 µM	69%	88%	0.46 µM	ratLPS/% Inh @20.0 (mg/kg) (TNF-α; 4 hours before LPS challenge): 91.0%
CC(C)(O)C(=O)N1CCC(c2[nH]nc(-c3ccc(Cl)cc3)c2-c2ccncn2)CC1 [Example D-4, hydrochloride]	–	–	0.91 µM	42.3%	83%	1.55 µM	ratLPS/% Inh @20.0 (mg/kg) (TNF-α; 4 hours before LPS challenge): 99.0%
C[C@H](O)C(=O)N1CCC(c2[nH]nc(-c3ccc(Cl)cc3)c2-c2ccncn2)CC1 [Example D-5, hydrochloride]	–	–	0.14 µM	65%	78.5%	4.09 µM	ratLPS/% Inh @20.0 (mg/kg) (TNF-α; 4 hours before LPS challenge): 83.0%
C[C@@H](O)C(=O)N1CCC(c2[nH]nc(-c3ccc(Cl)cc3)c2-c2ccncn2)CC1 [Example D-6, hydrochloride]	–	–	0.083 µM	82%	96%	1.33 µM	ratLPS/% Inh @20.0 (mg/kg) (TNF-α; 4 hours before LPS challenge): 100%
O=C([C@H](O)c1ccccc1)N1CCC(c2[nH]nc(-c3ccc(Cl)cc3)c2-c2ccncn2)CC1 [Example D-7, (R)-N-(2-Hydroxy-2-phenylacetyl)-5-(4-piperidyl)-4-(4-pyrimidyl)-3-(4-chlorophenyl)pyrazole]	–	–	0.44 µM	–	0%	> 25 µM	–
O=C(CO)N1CCC(c2[nH]nc(-c3ccc(F)cc3)c2-c2ccncn2)CC1 [Example D-8]	–	–	0.18 µM	65%	85%	1.3 µM	–
O=C(CO)N1CCC(c2[nH]nc(-c3ccc(C(F)(F)F)cc3)c2-c2ccncn2)CC1 [Example D-9]	–	–	1.63 µM	5%	86%	15.8 µM	–
O=C(CO)N1CCC(c2[nH]nc(-c3ccc(OC(F)(F)F)cc3)c2-c2ccncn2)CC1 [Example D-10, N-(2-Hydroxyacetyl)-5-(4-piperidyl)-4-(4-pyrimidyl)-3-(4-trifluoromethoxyphenyl)pyrazole]	–	–	3.95 µM	–	80%	14.8 µM	–
O=C(CO)N1CCC(c2[nH]nc(-c3cccc(Cl)c3)c2-c2ccncn2)CC1 [Example D-11, N-(2-Hydroxyacetyl)-5-(4-piperidyl)-4-(4-pyrimidyl)-3-(3-chlorophenyl)pyrazole]	–	–	0.16 µM	43%	86%	1.5 µM	–
O=C(CO)N1CCC(c2[nH]nc(-c3cccc(F)c3)c2-c2ccncn2)CC1 [Example D-12, N4(2Hydroxyacetyl)-5-(4-piperidyl)-4-(4-pyrimidyl)-3-(3-fluorophenyl)pyrazole]	–	–	0.82 µM	71%	91%	7.06 µM	–
O=C(CO)N1CCC(c2[nH]nc(-c3cccc(C(F)(F)F)c3)c2-c2ccncn2)CC1 [Example D-13]	–	–	0.33 µM	53%	87%	8.36 µM	–
